{
  "source": "patent US7737159B2",
  "about": "“Antibacterial compounds” (Abbott Laboratories, priority 2004, dated 2010)",
  "target": "bacterial protein synthesis (S30 extract from quinolone-succeptable Streptococcus pneumoniae ATCC 46919)",
  "assay": "Translation assay, firefly luciferase reporter system with S30 Streptococcus pneumoniae extract",
  "format": "biochemical",
  "conditions": "luciferase mRNA, read-out: IC50, concentration causing 50% inhibition of bacterial protein synthesis",
  "method": "Bacterial protein synthesis inhibitory activity of representative compounds of this invention having formula (I) and the commercially-available antibacterials in TABLE 2 was determined by translation assays using the firefly luciferase reporter system described by Murray et al., (2001), “Staphylococcus aureus Cell Extract Transcription-Translation Assay: Firefly Luciferase Reporter System for Evaluating Protein Translation Inhibitors,” Antimicrob. Agents Chemother. 45(6): 1900-1904, but replacing the Staphylococcus aureus S30 extract described therein with S30 Streptococcus pneumoniae extract from quinolone-succeptable Streptococcus pneumoniae ATCC 46919, and replacing plasmid coding for the luciferase gene with mRNA (encoding produced by in vitro transcription from the plasmid pAS10rbs3) which encoded the luciferase gene with an upstream Streptococcus pneumoniae promoter and Shine-Dalgarno site.",
  "data": [
    {"molecule": "CC(=O)NC[C@H]1CN(c2ccc(N3CCOCC3)c(F)c2)C(=O)O1", "note": "[Linezolid]", "values": [
      {"measurement": "IC50", "value": "~3000", "unit": "nM"}
    ]}
  ]
}
